{"source": "patent US10264790B2", "about": "“Use of certain herbicide combinations based on iodosulfuron in teff plants” (BAYER CROPSCIENCE AKTIENGESELLSCHAFT, priority 2016, dated 2019)", "origin": "cited, not measured here", "key": {"teff (Eragrostis tef)": {"tested_on": "teff (Eragrostis tef)", "details": "for injury on teff: in vivo; for yield reductions: field studies Kansas, teff"}, "[1]": {"tested_on": "Phalaris paradoxa and Setaria pallidefusca", "details": "pot experiments; applied pre-emergence (diclofop-methyl only with a safener)"}, "teff [2]": {"tested_on": "teff", "details": "for selectivity in teff: with or without the safener"}, "teff [3]": {"tested_on": "teff", "details": "for levels of weed control, teff safety and teff yields: postemergence applications; for injury to teff: applied postemergence"}, "[4]": {"details": "postemergence treatments, field studies Oregon 2009"}}, "note": "Like-named read-outs stand apart in the source and are kept apart here.", "data": [{"smiles": "O=C(O)COc1ccc(Cl)cc1Cl", "note": "[2,4-D, (2,4-dichlorophenoxy)acetic acid]", "values": [{"measurement": "injury on teff", "setting": "teff (Eragrostis tef)", "result": "less than 5%"}]}, {"smiles": "COC(=O)C(C)Oc1ccc(Oc2ccc(Cl)cc2Cl)cc1", "note": "(centres unmarked) [Diclofop-methyl]", "values": [{"measurement": "control of Phalaris paradoxa and Setaria pallidefusca", "setting": "[1]", "result": "controlled both weeds"}, {"measurement": "safety / tolerance on teff", "setting": "teff [2]; pot experiments, applied pre-emergence (diclofop-methyl only with a safener)", "result": "tolerated by teff"}]}, {"smiles": "CCc1cccc(CC)c1N(COC)C(=O)CCl", "note": "[alachlor]", "values": [{"measurement": "selectivity in teff", "setting": "teff [2]; pot experiments", "result": "failed to show selectivity"}]}, {"smiles": "COc1nc(C)nc(NC(=O)NS(=O)(=O)c2ccccc2Cl)n1", "note": "[chlorsulfuron]", "values": [{"measurement": "teff injury (in words)", "setting": "teff [3]; in vivo", "result": "little or no teff injury"}, {"measurement": "levels of weed control, teff safety and teff yields", "setting": "teff [3]; field studies Oregon 2009", "result": "highest levels"}, {"measurement": "control of Phalaris paradoxa and Setaria pallidefusca", "setting": "[1]", "result": "controlled both weed species"}, {"measurement": "safety / tolerance on teff", "setting": "teff [2]; in vivo", "result": "safe on teff"}]}, {"smiles": "O=C(O)c1nc(Cl)ccc1Cl", "note": "[clopyralid]", "values": [{"measurement": "teff injury (in words)", "setting": "teff [3]; [4]", "result": "little or no teff injury"}]}, {"smiles": "COc1nn(C(=O)NS(=O)(=O)c2ccccc2OC(F)(F)F)c(=O)n1C", "note": "[flucarbazone]", "values": [{"measurement": "teff injury (in words)", "setting": "teff [3]; [4]", "result": "little or no teff injury"}]}, {"smiles": "Nc1c(Cl)c(F)nc(OCC(=O)O)c1Cl", "note": "[fluroxypyr]", "values": [{"measurement": "teff injury (in words)", "setting": "teff [3]; in vivo", "result": "little or no teff injury"}]}, {"smiles": "COc1cc(OC)nc(NC(=O)NS(=O)(=O)c2c(C(=O)O)c(Cl)nn2C)n1", "note": "[halosulfuron]", "values": [{"measurement": "injury on teff", "setting": "teff (Eragrostis tef)", "result": "less than 5%"}]}, {"smiles": "COc1cc(OC)nc(NC(=O)NS(=O)(=O)c2cc(C(=O)O)ccc2CNS(C)(=O)=O)n1", "note": "[mesosulfuron, 2-[(4,6-dimethoxypyrimidin-2-ylcarbamoyl)sulfamoyl]-α-methanesulfonamido-p-toluic acid]", "values": [{"measurement": "injury to teff", "setting": "teff [3]; field studies Oregon 2009", "result": 10, "unit": "%"}]}, {"smiles": "CS(=O)(=O)c1ccc(C(=O)C2C(=O)CCCC2=O)c([N+](=O)[O-])c1", "note": "[mesotrione]", "values": [{"measurement": "yield reductions", "setting": "teff (Eragrostis tef)", "result": 30, "unit": "%"}, {"measurement": "injury to teff", "setting": "teff [3]; field studies Oregon 2009", "result": 63, "unit": "%"}, {"measurement": "injury to the teff", "setting": "teff [3]; applied preemergence, field studies Oregon 2009", "result": 100, "unit": "%"}]}, {"smiles": "COc1ccc(NC(=O)N(C)C)cc1Cl", "note": "[metoxuron]", "values": [{"measurement": "selectivity in teff", "setting": "teff [2]; pot experiments", "result": "failed to show selectivity"}]}, {"smiles": "COc1nc(C)nc(=NC(=O)NS(=O)(=O)c2ccccc2C(=O)O)[nH]1", "note": "[metsulfuron]", "values": [{"measurement": "levels of weed control, teff safety and teff yields", "setting": "teff [3]; field studies Oregon 2009", "result": "highest levels"}, {"measurement": "teff injury (in words)", "setting": "teff [3]; [4]", "result": "little or no teff injury"}]}, {"smiles": "COc1cc(OC)nc(NC(=O)NS(=O)(=O)c2ncccc2C(=O)N(C)C)n1", "note": "[nicosulfuron]", "values": [{"measurement": "injury to teff", "setting": "teff [3]; field studies Oregon 2009", "result": 20, "unit": "%"}]}, {"smiles": "CCC(CC)Nc1c([N+](=O)[O-])cc(C)c(C)c1[N+](=O)[O-]", "note": "[pendimethalin]", "values": [{"measurement": "selectivity in teff", "setting": "teff [2]; pot experiments", "result": "failed to show selectivity"}]}, {"smiles": "CCc1cc(C)cc(CC)c1-c1c(OC(=O)C(C)(C)C)n2n(c1=O)CCOCC2", "note": "[pinoxaden]", "values": [{"measurement": "injury to teff", "setting": "teff [3]; field studies Oregon 2009", "result": 70, "unit": "%"}]}, {"smiles": "COc1nc(C)nc(NC(=O)NS(=O)(=O)c2ccccc2CCC(F)(F)F)n1", "note": "[prosulfuron]", "values": [{"measurement": "injury on teff", "setting": "teff (Eragrostis tef)", "result": "less than 5%"}]}, {"smiles": "Cn1nc(-c2cc(OCC(=O)O)c(Cl)cc2F)c(Cl)c1OC(F)F", "note": "[pyraflufen]", "values": [{"measurement": "teff injury (in words)", "setting": "teff [3]; [4]", "result": "little or no teff injury"}]}, {"smiles": "CCC/C(=N\\OCC)C1=C(O)CC(CC(C)SCC)CC1=O", "note": "(centres unmarked) [sethoxydim]", "values": [{"measurement": "yield reductions", "setting": "teff (Eragrostis tef)", "result": 50, "unit": "%"}]}, {"smiles": "COc1nc(C)nc(N(C)C(=O)NS(=O)(=O)c2ccccc2C(=O)O)n1", "note": "[tribenuron]", "values": [{"measurement": "teff injury (in words)", "setting": "teff [3]; [4]", "result": "little or no teff injury"}]}]}
